Results reported in ChEMBL document CHEMBL4316606, “Discovery of novel 2,3-dihydro-1H-inden-1-amine derivatives as selective monoamine oxidase B inhibitors” (Bioorg Med Chem Lett, 2019).

Key:
[1] = molecular target: T1, Amine oxidase [flavin-containing] B (Homo sapiens, UniProt P27338); experiment: Inhibition of recombinant human MAOB expressed in baculovirus infected BTI insect cells using p-tyramine as substrate preincubated for 30 mins followed by substrate addition and measured over 15 mins by Amplex red reagent/horseradish peroxidase coupled fluorescence assay
T1 sequence (P27338 whole entry): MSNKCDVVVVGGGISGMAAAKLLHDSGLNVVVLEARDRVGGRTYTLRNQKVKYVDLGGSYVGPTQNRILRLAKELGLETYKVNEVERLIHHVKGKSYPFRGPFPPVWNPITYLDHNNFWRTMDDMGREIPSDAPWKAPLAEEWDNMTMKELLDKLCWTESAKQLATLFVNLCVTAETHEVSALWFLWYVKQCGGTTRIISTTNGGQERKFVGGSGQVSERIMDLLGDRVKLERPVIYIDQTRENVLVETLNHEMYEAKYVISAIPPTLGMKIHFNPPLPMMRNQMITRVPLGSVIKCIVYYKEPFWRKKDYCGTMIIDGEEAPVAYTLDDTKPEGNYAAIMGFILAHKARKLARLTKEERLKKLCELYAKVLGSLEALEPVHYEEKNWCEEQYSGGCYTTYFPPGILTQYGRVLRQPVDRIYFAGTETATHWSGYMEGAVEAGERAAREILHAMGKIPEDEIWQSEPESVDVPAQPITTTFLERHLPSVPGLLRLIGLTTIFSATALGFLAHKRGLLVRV

[2] = molecular target: T2, Amine oxidase [flavin-containing] A (Homo sapiens, UniProt P21397); experiment: Inhibition of recombinant human MAOA expressed in baculovirus infected BTI insect cells using p-tyramine as substrate preincubated for 30 mins followed by substrate addition and measured over 15 mins by Amplex red reagent/horseradish peroxidase coupled fluorescence assay
T2 sequence (P21397 whole entry): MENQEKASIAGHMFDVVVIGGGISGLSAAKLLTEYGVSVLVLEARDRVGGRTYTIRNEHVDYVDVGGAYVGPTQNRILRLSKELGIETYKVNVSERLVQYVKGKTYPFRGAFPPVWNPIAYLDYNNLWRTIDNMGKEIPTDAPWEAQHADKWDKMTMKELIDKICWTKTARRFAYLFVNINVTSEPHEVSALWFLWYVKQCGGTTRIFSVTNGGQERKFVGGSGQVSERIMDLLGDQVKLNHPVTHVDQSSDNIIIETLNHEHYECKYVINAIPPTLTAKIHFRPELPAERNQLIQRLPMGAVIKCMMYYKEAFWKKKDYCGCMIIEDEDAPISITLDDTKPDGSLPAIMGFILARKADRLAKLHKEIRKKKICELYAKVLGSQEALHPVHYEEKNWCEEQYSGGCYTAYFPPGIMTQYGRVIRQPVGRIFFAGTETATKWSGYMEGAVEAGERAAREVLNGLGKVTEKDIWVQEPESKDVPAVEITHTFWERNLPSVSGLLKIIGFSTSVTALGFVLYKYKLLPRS

Homo sapiens = organism: Homo sapiens; experiment: Selectivity index, ratio of IC50 for recombinant human MAOA expressed in baculovirus infected BTI insect cells to IC50 for recombinant human MAOB expressed in baculovirus infected BTI insect cells

SMILES | IC50 [1] [nM] | IC50 [2] [nM] | Ratio IC50 (Homo sapiens)
C#CCNC1CCc2c(OCc3cccc(F)c3)cccc21 (stereo not drawn) | 2700 |  | 
C#CCNC1CCc2c(OCCc3cc(NC(=O)c4cccc(F)c4)ccc3Cl)cccc21 (stereo not drawn) | > 20000 |  | 
C#CCNC1CCc2c(NCc3ccc(F)cc3)cccc21 (stereo not drawn) | 980 |  | 
C#CCNC1CCc2c(SCc3ccc(F)cc3)cccc21 (stereo not drawn) | 240 | < 100 | 
C#CCNC1CCc2c(OCCc3cc(NC(=O)CO)ccc3Cl)cccc21 (stereo not drawn) | 270 | 252000 | 934
C#CCNC1CCc2c(SCc3ccc(C(C)(C)C)cc3)cccc21 (stereo not drawn) | > 20000 |  | 
C#CCNC1CCc2c(NCc3cccc(F)c3)cccc21 (stereo not drawn) | 1860 |  | 
C#CCNC1CCc2c(OCCc3cc(NC(=O)c4ccc(Cl)cc4)ccc3Cl)cccc21 (stereo not drawn) | > 20000 |  | 
C#CCNC1CCc2c(OCCc3cc(NC(=O)c4ccccc4)ccc3Cl)cccc21 (stereo not drawn) | > 20000 |  | 
C#CCNC1CCc2c(OCCc3cc(NC(=O)C(C)(C)C)ccc3F)cccc21 (stereo not drawn) | > 20000 |  | 
C#CCNC1CCc2c(NCc3cccc(C)c3)cccc21 (stereo not drawn) | 710 |  | 
C#CCNC1CCc2c(NCc3ccccc3)cccc21 (stereo not drawn) | > 20000 |  | 
C#CCNC1CCc2c(NCc3ccc(C)cc3)cccc21 (stereo not drawn) | 250 | 43100 | 172
C#CCNC1CCc2c(OCCc3cc(NC(C)=O)ccc3Cl)cccc21 (stereo not drawn) | 590 | 85200 | 144
C#CCNC1CCc2c(NCc3cccc(Br)c3)cccc21 (stereo not drawn) | 110 | 94300 | 857
C#CCNC1CCc2c(SCc3ccc(Cl)cc3)cccc21 (stereo not drawn) | 180 | 230 | 1.2
C#CCNC1CCc2c(OCCc3cccc4ccccc34)cccc21 (stereo not drawn) | 1900 |  | 
C#CCNC1CCc2c(OCCc3cccc(NC(=O)c4ccc(Cl)cc4)c3)cccc21 (stereo not drawn) | 360 |  | 
C#CCNC1CCc2c(OCCc3cc(NC(=O)c4ccc(F)cc4)ccc3Cl)cccc21 (stereo not drawn) | 5100 |  | 
C#CCNC1CCc2c(OCCc3cc(NC(=O)COC(C)=O)ccc3Cl)cccc21 (stereo not drawn) | 480 | 436000 | 909
